Data from patent US8058068B2, “Peptide-enhanced transfections” (Life Technologies Corporation, priority 1995, dated 2011).
Ends that are not written are not given here. Sp‑5‑CO = N-terminal spermine conjugate

Legend:
NIH/3T3 cells = type: cell-based; settings: peak activity
Method: Two versions of the Tat peptide were synthesized: one with the DNA-binding group carboxyspermine on the N-terminus and one without. The core TAT sequence employed was […] [SEQ ID NO:123]. The ability of the TAT peptide and the carboxyspermine-modified TAT peptide to enhance cationic lipid-mediated transfection was tested.
Transfection was performed in NIH/3T3 cells, in 24-well plates. Seeding density was 6×10^4 cells/well. For each condition, the standard PLUS protocol was used (see example 3) for complexing. All complexes were prepared in OptiMEM reduced serum media. Cells were harvested and assayed for β-galactosidase acivity in the soluble extracts by luminescent assay (see example 8). […] A clear enhancement is seen.

K562 cells = type: cell-based, human
Jurkat cells = type: cell-based, human
COS-7 cells = experiment: Dendrimer-mediated and Lipofectamine transfection +/- peptides, luciferase assay; type: cell-based; settings: K16NLS (peak 2) 1, Sp-NLSNLS 1.5, NLS 20 μg/well
Human fibroblasts [1] = experiment: Receptor-ligand proteins with Sp-NLSNLS in DNA pre-complexes, lipid transfection, β-galactosidase assay
Method: (§1) In separate experiments, CHO-K1 cells were seeded at 6×10^4 cells/well, and human fibroblasts were seeded at 8×10^4 cells/well in 24-well plates in DMEM supplemented with 10% fetal bovine serum and allowed to grow overnight.

CHO-K1 cells [2] = experiment: as above; settings: DNA precomplexed with Sp-NLSNLS and the ligand protein(s)
Method: as §1

Human fibroblasts [3] = type: cell-based
CHO-K1 cells [4] = experiment: Transfection by polycationic lipid reagents other than DOSPA-DOPE +/- Sp-NLSNLS, b-galactosidase assay; type: cell-based; settings: 24 h
Human fibroblasts [5] = experiment: as above; type: cell-based; settings: 24 h
NIH3T3 cells = experiment: as above; type: cell-based; settings: 24 h
[6] = Transfection Agent Arg DMER 3 μg/well, chloroquine
[7] = Transfection Agent G7 (EDA) 3 μg/well, chloroquine
[8] = Transfection Agent G9 (EDA) 3 μg/well, chloroquine
[9] = Transfection Agent Lipofectamine 1 μL/well
[10] = Transfection Agent Lys DMER 3 μg/well, chloroquine
[11] = Transfection Agent “COMB BURST” 3 μg/well, chloroquine
[12] = “LIPOFECTIN”, DNA precomplexed with Sp-NLSNLS and the ligand protein(s)
[13] = polycationic lipid with DNA alone

## CGYGRKKRRQRRRG [TAT]
NIH/3T3 cells
  ng b-Gal per cm2: 0.1 ng b-Gal per cm2
  ng b-Gal per ug Protein: 0.00 ng b-Gal per ug Protein

## GLFEAIAEFIEGGWEGLIEG [E5, hemagglutinin peptide, modification of FluHa]
K562 cells
  Enhancement-Fold (DMRIE-C transfections at peak activity): 3 Fold
Jurkat cells
  Enhancement-Fold (DMRIE-C transfections at peak activity): 1.2 Fold

## GYGPKKKRKVGG [NLS, nuclear localization signal of SV40 large T antigen]
COS-7 cells; [6]
  RLU (luciferase): 84209 RLU
COS-7 cells; [7]
  RLU (luciferase): 2749 RLU
COS-7 cells; [8]
  RLU (luciferase): 1747 RLU
COS-7 cells; [9]
  RLU (luciferase): 224029 RLU
COS-7 cells; [10]
  RLU (luciferase): 17689 RLU
COS-7 cells; [11]
  RLU (luciferase): 29639 RLU

## Insulin: receptor-ligand protein
Human fibroblasts [1]; DMRIE-DOPE, DNA precomplexed with Sp-NLSNLS and the ligand protein
  Peak activity (ng β-gal/cm^2): 20.7 ng β-gal/cm^2
Human fibroblasts [1]; [12]
  Peak activity (ng β-gal/cm^2): 22.7 ng β-gal/cm^2
CHO-K1 cells [2]; […]
  Peak activity (ng β-gal/cm^2): 452 ng β-gal/cm^2
CHO-K1 cells [2]; “LIPOFECTIN”
  Peak activity (ng β-gal/cm^2): 31 ng β-gal/cm^2

## K16CGYGPKKKRKVGGGGRGDSP (KKKKKKKKKKKKKKKKGGCGYGPKKKRKVGGKFTIVF) [K16NLSRGD]
K562 cells
  Enhancement-Fold (DMRIE-C transfections at peak activity): 1 Fold
Jurkat cells
  Enhancement-Fold (DMRIE-C transfections at peak activity): 1 Fold

## K16GGCGYGPKKKRKVGG [K16NLS (peak 2)]
K562 cells
  Enhancement-Fold (DMRIE-C transfections at peak activity): 1 Fold
Jurkat cells
  Enhancement-Fold (DMRIE-C transfections at peak activity): 1 Fold
COS-7 cells; [6]
  RLU (luciferase): 63307 RLU
COS-7 cells; [7]
  RLU (luciferase): 3423 RLU
COS-7 cells; [8]
  RLU (luciferase): 2297 RLU
COS-7 cells; [9]
  RLU (luciferase): 164105 RLU
COS-7 cells; [10]
  RLU (luciferase): 20847 RLU
COS-7 cells; [11]
  RLU (luciferase): 28562 RLU

## Sp-5-CO-GGYGPKKKRKVGGGGYGPKKKRKVGG ({Sp‑5‑CO}-GGYGPKKKRKVGGGGYGPKKKRKVGG) [Sp-NLSNLS, the peptide NLSNLS conjugated to spermine]
Human fibroblasts [3]
  Enhancement levels (β-galactosidase activity): 5-8 fold
COS-7 cells; [6]
  RLU (luciferase): 56548 RLU
COS-7 cells; [7]
  RLU (luciferase): 2832 RLU
COS-7 cells; [8]
  RLU (luciferase): 1702 RLU
COS-7 cells; [9]
  RLU (luciferase): 200447 RLU
COS-7 cells; [10]
  RLU (luciferase): 17203 RLU
COS-7 cells; [11]
  RLU (luciferase): 23503 RLU

## Transferrin: receptor-ligand protein
Human fibroblasts [1]; […], DNA precomplexed with Sp-NLSNLS and the ligand protein(s)
  Peak activity (ng β-gal/cm^2): 24.5 ng β-gal/cm^2
Human fibroblasts [1]; [12]
  Peak activity (ng β-gal/cm^2): 30.6 ng β-gal/cm^2
CHO-K1 cells [2]; […]
  Peak activity (ng β-gal/cm^2): 433 ng β-gal/cm^2
CHO-K1 cells [2]; “LIPOFECTIN”
  Peak activity (ng β-gal/cm^2): 44 ng β-gal/cm^2

## sp-TAT: Tat peptide CGYGRKKRRQRRRG with the DNA-binding group carboxyspermine on the N-terminus (carboxyspermine-CGYGRKKRRQRRRG)
NIH/3T3 cells
  ng b-Gal per cm2: 0.06 ng b-Gal per cm2
  ng b-Gal per ug Protein: 0.00 ng b-Gal per ug Protein

## tetramethyldioleyl spermine [TMDOS]
CHO-K1 cells [4]; DNA precomplexed to Sp-NLSNLS
  Peak activity, Lipid + SpNLSNLS: 2.9 ng b-gal/cm^2
CHO-K1 cells [4]; [13]
  Peak activity, Lipid alone: 1.4 ng b-gal/cm^2
Human fibroblasts [5]; DNA precomplexed to Sp-NLSNLS
  Peak activity, Lipid + SpNLSNLS: 0.1 ng b-gal/cm^2
Human fibroblasts [5]; [13]
  Peak activity, Lipid alone: 0.01 ng b-gal/cm^2
NIH3T3 cells; DNA precomplexed to Sp-NLSNLS
  Peak activity, Lipid + SpNLSNLS: 1.3 ng b-gal/cm^2
NIH3T3 cells; [13]
  Peak activity, Lipid alone: 0.2 ng b-gal/cm^2
